Results reported in article doi:10.1101/2023.03.24.534094v2 (biorxiv, 2023).
Read-outs that look alike come from different tables or passages of the source.

Key:
Assay in all cases: biochemical
BRPF1 = molecular target: T1, BRPF1 (Homo sapiens, UniProt P55201)
T1 sequence (P55201 1-1214): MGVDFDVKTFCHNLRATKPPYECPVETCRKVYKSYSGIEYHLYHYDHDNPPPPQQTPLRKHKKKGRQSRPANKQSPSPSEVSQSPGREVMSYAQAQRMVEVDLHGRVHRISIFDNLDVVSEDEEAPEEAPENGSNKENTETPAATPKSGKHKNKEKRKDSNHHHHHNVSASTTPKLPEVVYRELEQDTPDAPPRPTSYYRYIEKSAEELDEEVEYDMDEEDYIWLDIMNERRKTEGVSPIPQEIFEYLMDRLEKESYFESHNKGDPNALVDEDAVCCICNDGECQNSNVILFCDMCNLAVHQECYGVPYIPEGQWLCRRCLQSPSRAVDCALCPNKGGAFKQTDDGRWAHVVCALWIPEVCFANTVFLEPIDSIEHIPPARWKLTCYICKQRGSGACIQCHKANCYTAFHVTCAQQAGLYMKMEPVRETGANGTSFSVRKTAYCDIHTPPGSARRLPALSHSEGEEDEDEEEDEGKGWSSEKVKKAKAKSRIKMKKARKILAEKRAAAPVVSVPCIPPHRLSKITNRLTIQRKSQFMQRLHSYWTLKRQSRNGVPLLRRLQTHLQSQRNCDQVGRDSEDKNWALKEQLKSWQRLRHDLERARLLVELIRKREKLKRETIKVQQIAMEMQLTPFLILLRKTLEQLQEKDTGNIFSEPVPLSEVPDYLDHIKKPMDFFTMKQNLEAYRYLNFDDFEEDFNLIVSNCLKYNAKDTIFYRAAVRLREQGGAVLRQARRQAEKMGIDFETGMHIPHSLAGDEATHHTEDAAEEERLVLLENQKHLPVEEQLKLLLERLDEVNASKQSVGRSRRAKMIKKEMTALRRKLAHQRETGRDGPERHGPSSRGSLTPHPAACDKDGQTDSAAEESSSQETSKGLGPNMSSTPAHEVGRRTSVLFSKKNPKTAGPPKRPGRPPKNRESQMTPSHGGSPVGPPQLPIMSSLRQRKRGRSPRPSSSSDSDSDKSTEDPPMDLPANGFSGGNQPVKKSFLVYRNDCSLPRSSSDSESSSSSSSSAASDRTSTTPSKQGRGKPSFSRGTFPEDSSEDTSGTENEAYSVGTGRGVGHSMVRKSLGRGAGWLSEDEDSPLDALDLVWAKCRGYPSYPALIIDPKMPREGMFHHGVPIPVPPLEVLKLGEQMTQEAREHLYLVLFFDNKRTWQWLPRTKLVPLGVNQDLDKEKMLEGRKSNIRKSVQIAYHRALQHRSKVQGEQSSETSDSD

DAPK1 = DAPK1 (Homo sapiens, UniProt P53355)
EpHA2 = EpHA2 (Homo sapiens, UniProt P29317)
JNK1 = JNK1 (Homo sapiens, UniProt P45983)
MAP3K5 = molecular target: T2, MAP3K5 (Homo sapiens, UniProt Q99683)
T2 sequence (Q99683 1-1374): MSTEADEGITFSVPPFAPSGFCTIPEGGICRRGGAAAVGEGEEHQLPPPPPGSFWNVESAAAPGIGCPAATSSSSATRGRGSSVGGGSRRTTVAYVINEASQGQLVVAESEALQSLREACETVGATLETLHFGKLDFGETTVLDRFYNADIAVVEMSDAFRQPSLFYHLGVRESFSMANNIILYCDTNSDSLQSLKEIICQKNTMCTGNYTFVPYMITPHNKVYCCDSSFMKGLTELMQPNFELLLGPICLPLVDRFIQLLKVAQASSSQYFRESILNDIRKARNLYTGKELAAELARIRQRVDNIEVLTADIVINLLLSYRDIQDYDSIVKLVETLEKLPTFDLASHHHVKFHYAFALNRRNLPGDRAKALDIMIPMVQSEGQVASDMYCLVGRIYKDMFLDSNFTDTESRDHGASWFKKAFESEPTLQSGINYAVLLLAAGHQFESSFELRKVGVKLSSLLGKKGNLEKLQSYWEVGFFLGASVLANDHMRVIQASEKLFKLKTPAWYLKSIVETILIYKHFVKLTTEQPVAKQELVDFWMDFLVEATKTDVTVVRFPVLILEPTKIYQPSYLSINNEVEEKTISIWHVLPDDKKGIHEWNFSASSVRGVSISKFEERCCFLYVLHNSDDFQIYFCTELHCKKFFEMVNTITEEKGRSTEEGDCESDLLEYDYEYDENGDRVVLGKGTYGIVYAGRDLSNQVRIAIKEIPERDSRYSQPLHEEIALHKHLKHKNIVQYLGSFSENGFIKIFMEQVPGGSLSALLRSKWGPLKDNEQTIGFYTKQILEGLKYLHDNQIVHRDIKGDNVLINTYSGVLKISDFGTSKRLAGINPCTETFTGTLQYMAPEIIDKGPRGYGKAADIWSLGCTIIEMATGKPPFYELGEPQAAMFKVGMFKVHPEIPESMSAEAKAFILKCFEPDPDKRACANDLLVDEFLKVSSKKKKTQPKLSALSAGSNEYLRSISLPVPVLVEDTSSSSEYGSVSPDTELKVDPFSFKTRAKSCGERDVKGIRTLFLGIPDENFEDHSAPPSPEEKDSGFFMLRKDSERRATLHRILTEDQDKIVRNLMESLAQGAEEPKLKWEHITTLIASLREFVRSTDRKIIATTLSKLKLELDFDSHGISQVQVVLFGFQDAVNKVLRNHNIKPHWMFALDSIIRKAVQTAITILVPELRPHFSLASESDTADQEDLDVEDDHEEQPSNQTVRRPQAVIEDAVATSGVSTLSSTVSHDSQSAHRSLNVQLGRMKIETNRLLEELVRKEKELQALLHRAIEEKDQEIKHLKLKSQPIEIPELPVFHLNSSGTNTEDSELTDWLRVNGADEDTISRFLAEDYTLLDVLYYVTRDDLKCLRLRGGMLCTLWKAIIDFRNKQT

PAK4 = PAK4 (Homo sapiens, UniProt O96013)
SRC = SRC (Homo sapiens, UniProt P12931)
Chain of SRC (P12931 whole entry): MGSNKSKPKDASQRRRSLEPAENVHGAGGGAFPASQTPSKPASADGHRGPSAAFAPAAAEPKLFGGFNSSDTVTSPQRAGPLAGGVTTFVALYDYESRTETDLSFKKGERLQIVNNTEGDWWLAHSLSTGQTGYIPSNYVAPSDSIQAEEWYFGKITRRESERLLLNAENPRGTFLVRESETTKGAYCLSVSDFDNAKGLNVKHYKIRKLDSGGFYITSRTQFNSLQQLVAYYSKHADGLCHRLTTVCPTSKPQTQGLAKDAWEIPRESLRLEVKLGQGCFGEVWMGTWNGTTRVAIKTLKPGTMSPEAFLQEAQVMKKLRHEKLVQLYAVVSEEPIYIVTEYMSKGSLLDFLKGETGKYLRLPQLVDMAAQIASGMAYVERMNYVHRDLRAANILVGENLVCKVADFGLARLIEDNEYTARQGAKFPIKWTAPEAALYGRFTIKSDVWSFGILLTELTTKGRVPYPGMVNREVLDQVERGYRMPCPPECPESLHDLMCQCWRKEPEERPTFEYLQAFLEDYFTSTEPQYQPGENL

Chain of DAPK1 (P53355 whole entry): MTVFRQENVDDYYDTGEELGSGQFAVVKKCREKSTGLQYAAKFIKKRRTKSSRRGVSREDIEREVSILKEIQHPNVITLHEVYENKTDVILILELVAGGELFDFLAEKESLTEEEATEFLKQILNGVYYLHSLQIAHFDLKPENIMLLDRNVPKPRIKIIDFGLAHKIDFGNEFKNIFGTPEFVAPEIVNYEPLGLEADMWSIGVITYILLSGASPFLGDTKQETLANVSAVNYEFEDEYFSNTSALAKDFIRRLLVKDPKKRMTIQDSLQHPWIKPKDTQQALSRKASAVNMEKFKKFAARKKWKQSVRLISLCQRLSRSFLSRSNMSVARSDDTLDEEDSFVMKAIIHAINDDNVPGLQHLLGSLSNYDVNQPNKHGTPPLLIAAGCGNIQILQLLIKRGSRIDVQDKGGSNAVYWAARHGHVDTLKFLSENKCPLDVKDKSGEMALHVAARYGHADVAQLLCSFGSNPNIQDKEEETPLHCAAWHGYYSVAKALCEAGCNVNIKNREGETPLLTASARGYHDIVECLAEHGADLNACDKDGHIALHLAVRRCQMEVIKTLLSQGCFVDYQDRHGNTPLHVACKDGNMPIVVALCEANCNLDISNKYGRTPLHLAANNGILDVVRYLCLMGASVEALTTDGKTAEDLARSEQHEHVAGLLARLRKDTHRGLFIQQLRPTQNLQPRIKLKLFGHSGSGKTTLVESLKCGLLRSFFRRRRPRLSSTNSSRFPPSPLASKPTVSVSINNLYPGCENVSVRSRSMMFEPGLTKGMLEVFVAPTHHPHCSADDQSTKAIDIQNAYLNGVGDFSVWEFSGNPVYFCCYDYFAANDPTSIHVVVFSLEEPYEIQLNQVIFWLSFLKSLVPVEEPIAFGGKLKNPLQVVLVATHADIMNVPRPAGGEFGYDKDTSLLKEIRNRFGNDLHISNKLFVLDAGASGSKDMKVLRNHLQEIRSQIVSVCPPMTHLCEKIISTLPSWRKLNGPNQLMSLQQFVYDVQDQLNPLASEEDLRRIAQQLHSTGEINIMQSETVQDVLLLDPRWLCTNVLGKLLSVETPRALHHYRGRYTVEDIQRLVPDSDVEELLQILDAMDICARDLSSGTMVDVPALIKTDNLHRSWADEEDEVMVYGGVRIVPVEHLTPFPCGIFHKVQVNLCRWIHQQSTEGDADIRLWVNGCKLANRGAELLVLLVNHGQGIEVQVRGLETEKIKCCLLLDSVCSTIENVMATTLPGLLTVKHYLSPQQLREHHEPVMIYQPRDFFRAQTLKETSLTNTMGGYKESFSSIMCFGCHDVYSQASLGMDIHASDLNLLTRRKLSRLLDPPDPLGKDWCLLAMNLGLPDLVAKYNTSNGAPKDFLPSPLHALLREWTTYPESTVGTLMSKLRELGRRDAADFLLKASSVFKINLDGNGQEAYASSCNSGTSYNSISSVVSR
Chain of JNK1 (P45983 whole entry): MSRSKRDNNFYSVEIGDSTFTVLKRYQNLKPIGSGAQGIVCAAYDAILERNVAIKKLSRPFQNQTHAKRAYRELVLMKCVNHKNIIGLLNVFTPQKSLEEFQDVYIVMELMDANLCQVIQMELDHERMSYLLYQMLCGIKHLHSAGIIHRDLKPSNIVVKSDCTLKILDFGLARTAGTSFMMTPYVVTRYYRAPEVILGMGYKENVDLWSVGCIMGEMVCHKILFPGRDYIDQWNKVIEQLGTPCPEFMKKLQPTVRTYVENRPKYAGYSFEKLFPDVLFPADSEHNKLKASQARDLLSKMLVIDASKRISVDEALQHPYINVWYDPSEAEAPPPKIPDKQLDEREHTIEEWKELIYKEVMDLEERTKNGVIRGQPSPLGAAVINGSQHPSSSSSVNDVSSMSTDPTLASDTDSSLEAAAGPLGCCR
Chain of EpHA2 (P29317 whole entry): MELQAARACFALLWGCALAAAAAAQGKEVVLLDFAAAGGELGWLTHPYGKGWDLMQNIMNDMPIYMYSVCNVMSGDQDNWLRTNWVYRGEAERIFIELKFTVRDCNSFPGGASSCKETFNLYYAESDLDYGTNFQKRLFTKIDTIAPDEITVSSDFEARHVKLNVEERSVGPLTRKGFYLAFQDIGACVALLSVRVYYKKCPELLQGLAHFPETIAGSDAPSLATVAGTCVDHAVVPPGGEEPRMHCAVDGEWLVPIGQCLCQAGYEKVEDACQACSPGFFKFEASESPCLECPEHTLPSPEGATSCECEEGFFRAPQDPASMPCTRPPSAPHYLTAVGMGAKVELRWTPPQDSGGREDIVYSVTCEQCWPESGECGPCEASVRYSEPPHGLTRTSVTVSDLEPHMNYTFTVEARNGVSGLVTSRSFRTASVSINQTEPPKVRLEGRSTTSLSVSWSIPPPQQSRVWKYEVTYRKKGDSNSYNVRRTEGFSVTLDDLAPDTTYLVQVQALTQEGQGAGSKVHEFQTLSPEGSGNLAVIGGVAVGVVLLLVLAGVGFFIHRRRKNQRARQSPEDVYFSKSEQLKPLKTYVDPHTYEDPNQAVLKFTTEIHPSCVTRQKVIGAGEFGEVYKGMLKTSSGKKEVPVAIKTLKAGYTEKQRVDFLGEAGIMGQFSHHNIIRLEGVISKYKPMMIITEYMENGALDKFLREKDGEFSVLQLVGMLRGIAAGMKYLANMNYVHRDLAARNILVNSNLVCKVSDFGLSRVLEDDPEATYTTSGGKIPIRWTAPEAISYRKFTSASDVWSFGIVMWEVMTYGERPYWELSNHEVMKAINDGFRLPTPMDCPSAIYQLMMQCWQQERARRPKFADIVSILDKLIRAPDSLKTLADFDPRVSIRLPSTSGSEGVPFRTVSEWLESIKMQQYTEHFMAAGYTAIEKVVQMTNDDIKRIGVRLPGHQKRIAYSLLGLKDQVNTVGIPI
Chain of PAK4 (O96013 whole entry): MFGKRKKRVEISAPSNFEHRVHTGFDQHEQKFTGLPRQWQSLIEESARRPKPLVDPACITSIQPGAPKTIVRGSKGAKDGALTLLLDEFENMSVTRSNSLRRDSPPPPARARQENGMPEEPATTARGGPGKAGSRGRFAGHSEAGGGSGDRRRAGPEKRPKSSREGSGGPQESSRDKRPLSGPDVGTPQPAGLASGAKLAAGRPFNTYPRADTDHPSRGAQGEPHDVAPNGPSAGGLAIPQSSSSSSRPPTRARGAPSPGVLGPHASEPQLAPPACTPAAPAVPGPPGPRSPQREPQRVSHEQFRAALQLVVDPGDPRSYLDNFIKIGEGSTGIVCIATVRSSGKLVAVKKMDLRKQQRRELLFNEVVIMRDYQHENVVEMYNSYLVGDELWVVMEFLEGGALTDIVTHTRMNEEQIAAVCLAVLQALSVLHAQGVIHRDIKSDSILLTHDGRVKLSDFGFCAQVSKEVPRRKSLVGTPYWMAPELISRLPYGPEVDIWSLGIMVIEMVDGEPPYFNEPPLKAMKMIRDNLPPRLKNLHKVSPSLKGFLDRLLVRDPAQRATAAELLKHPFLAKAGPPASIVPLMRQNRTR

Question: How did the ΔTm at 10 µM (BRPF1; read-out: dTm 12) turn out when `CNc1ncc2cc(-c3cc(F)c(-c4cccc(C)n4)cc3F)c(=O)n(CCCCN)c2n1` [compound 12, 8-(4-Aminobutyl)-6-(2,5-difluoro-4-(6-methylpyridin-2-yl)phenyl)-2-(methylamino)pyrido[2,3-d]pyrimidin-7(8H)-one] was run?
Answer: -1.5 °C

Question: What about the ΔTm at 10 µM (DAPK1; read-out: dTm 12) of the same compound?
Answer: -0.9 °C

Question: What about the ΔTm at 10 µM (EpHA2; read-out: dTm 12) of the same compound?
Answer: 3.9 °C

Question: And the ΔTm at 10 µM (JNK1; read-out: dTm 12)?
Answer: 0.7 °C

Question: And the ΔTm at 10 µM (MAP3K5; read-out: dTm 12)?
Answer: 9.1 °C

Question: And the ΔTm at 10 µM (PAK4; read-out: dTm 12)?
Answer: 1.8 °C

Question: What about the ΔTm at 10 µM (SRC; read-out: dTm 12) of the same compound?
Answer: 1.2 °C

Question: How did the ΔTm at 10 µM (BRPF1; read-out: dTm 9) turn out when `CNc1ncc2cc(-c3cc(C(F)(F)F)ccc3Cl)c(=O)n(CCCCN)c2n1` [compound 9, 8-(4-Aminobutyl)-6-(2-chloro-5-(trifluoromethyl)phenyl)-2-(methylamino)pyrido[2,3-d]pyrimidin-7(8H)-one] was run?
Answer: -0.4 °C

Question: What about the ΔTm at 10 µM (DAPK1; read-out: dTm 9) of the same compound?
Answer: 0.1 °C

Question: What about the ΔTm at 10 µM (EpHA2; read-out: dTm 9) of the same compound?
Answer: 4.8 °C

Question: What about the ΔTm at 10 µM (JNK1; read-out: dTm 9) of the same compound?
Answer: 0.6 °C

Question: What about the ΔTm at 10 µM (MAP3K5; read-out: dTm 9) of the same compound?
Answer: 0.4 °C

Question: And the ΔTm at 10 µM (PAK4; read-out: dTm 9)?
Answer: 0.5 °C

Question: What about the ΔTm at 10 µM (SRC; read-out: dTm 9) of the same compound?
Answer: 0 °C

Question: `CNc1ncc2cc(-c3cc(Cl)ccc3Cl)c(=O)n(CCCCN)c2n1` [compound 8, 8-(4-Aminobutyl)-6-(2,5-dichlorophenyl)-2-(methylamino)pyrido[2,3-d]pyrimidin-7(8H)-one] was tested. Which ΔTm at 10 µM (BRPF1; read-out: dTm 8) did it give?
Answer: -0.5 °C

Question: What about the ΔTm at 10 µM (DAPK1; read-out: dTm 8) of the same compound?
Answer: 0.1 °C

Question: What about the ΔTm at 10 µM (EpHA2; read-out: dTm 8) of the same compound?
Answer: 7.1 °C

Question: What about the ΔTm at 10 µM (JNK1; read-out: dTm 8) of the same compound?
Answer: 1.4 °C

Question: What about the ΔTm at 10 µM (MAP3K5; read-out: dTm 8) of the same compound?
Answer: 1.5 °C

Question: What about the ΔTm at 10 µM (SRC; read-out: dTm 8) of the same compound?
Answer: 0.6 °C

Question: What does the source list for `CNc1ncc2cc(-c3cc(Cl)ccc3Br)c(=O)n(CCCCN)c2n1` [compound 10, 8-(4-Aminobutyl)-6-(2-bromo-5-chlorophenyl)-2-(methylamino)pyrido[2,3-d]pyrimidin-7(8H)-one]?
Answer: ΔTm at 10 µM (BRPF1; read-out: dTm 10): -0.3 °C; ΔTm at 10 µM (DAPK1; read-out: dTm 10): 0.1 °C; ΔTm at 10 µM (EpHA2; read-out: dTm 10): 7.4 °C; ΔTm at 10 µM (JNK1; read-out: dTm 10): 0.8 °C; ΔTm at 10 µM (MAP3K5; read-out: dTm 10): 1.7 °C; ΔTm at 10 µM (PAK4; read-out: dTm 10): 1.3 °C; ΔTm at 10 µM (SRC; read-out: dTm 10): 0.6 °C

Question: What does the source list for `CNc1ncc2cc(-c3cc(Br)ccc3Br)c(=O)n(CCCCN)c2n1` [compound 11, 8-(4-Aminobutyl)-6-(2,5-dibromophenyl)-2-(methylamino)pyrido[2,3-d]pyrimidin-7(8H)-one]?
Answer: ΔTm at 10 µM (BRPF1; read-out: dTm 11): -0.7 °C; ΔTm at 10 µM (DAPK1; read-out: dTm 11): 0.2 °C; ΔTm at 10 µM (EpHA2; read-out: dTm 11): 6.4 °C; ΔTm at 10 µM (JNK1; read-out: dTm 11): 0.9 °C; ΔTm at 10 µM (MAP3K5; read-out: dTm 11): 1.6 °C; ΔTm at 10 µM (PAK4; read-out: dTm 11): 1.1 °C; ΔTm at 10 µM (SRC; read-out: dTm 11): 0.4 °C
